Data reported in patent US8492377B2, “MTKI quinazoline derivatives” (Janssen Pharmaceutica NV, priority 2006, dated 2013).

Columns and labels:
human Src = human Src (Homo sapiens, UniProt P12931); test: C1: c-Src filter assay; type: biochemical; details: 5 ng human Src, 1.0 μM unlabeled ATP, poly(Glu,Tyr) 4:1, 25° C., 10 minutes; read-out: C1: c-SRC filter pIC50 (converted)
Experimental: The in vitro inhibition of c-Src kinase was assessed using the glass-fiber filter technology as described by Davies, S. P. et al., Biochem J. (2000), 351; p. 95-105.
In the glass-fiber filter technology the activity of the kinase is measured using an appropriate substrate that is incubated with the aforementioned kinase protein in the presence of (^33P) radiolabeled ATP. (^33P) Phosporylation of the substrate is subsequently measured as radioactivity bound on a glassfiber-filter.
In an alternative filter based assay the final kinase activity was assessed using a phosphostorage screen instead of scintilation counting.
In this assay the Src kinase reaction is performed at 25° C. for 10 minutes in a 96-well microtiterplate. The 25 μl reaction volume contains 8 mM MOPS pH 7.0, 20 mM Mg-acetate, 0.2 mM Na2EDTA, 0.5 mM MnCl2, 1.0 μM unlabeled ATP, 0.2 μCi AT^33P, 20 ng poly(Glu,Tyr) 4:1 and 5 ng human Src.
The reaction is stopped by adding 5 μl of a 3% phosphoric acid solution. 5 μl of the reaction mixture is then spotted onto a Filtermat A filter (Wallac) and washed 3 times for 5 min. in 75 mM phosphoric acid and 1 time for 5 min. in methanol prior to drying and quantification on the Typhoon (Amersham) using a phosphostorage screen.

human Fyn = human Fyn (Homo sapiens, UniProt P06241); test: C2: Fyn kinase assay; type: biochemical; details: 5 ng human Fyn, 1.0 μM unlabeled ATP, poly(Glu,Tyr) 4:1, 25° C., 10 minutes; read-out: C2: Fyn kinase pIC50 (converted)
Chain of human Fyn (P06241 whole entry): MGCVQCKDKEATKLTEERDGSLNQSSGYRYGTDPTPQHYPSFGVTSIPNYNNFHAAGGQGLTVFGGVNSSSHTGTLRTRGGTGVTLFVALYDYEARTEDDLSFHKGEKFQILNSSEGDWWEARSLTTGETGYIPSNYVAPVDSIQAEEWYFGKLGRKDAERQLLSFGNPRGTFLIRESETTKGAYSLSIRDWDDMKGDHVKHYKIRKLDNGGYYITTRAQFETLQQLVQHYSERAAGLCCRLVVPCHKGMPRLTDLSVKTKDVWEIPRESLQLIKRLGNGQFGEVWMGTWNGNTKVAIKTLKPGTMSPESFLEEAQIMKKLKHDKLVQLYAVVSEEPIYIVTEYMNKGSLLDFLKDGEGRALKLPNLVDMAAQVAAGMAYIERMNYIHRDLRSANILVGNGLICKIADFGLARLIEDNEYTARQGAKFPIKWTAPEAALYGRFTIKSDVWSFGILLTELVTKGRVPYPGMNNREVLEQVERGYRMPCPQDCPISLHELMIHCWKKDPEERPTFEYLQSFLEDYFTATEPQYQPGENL
Experimental: In this assay the Fyn kinase reaction is performed at 25° C. for 10 minutes in a 96-well microtiterplate. The 25 μl reaction volume contains 8 mM MOPS pH 7.0, 20 mM Mg-acetate, 0.2 mM Na2EDTA, 0.5 mM MnCl2, 1.0 μM unlabeled ATP, 0.2 μCi AT^33P, 20 ng poly(Glu,Tyr) 4:1 and 5 ng human Fyn.
The reaction is stopped by adding 5 μl of a 3% phosphoric acid solution. 5 μl of the reaction mixture is then spotted onto a Filtermat A filter (Wallac) and washed 3 times for 5 min. in 75 mM phosphoric acid and 1 time for 5 min. in methanol prior to drying and scintillation counting.

Chain of human Src (P12931 whole entry): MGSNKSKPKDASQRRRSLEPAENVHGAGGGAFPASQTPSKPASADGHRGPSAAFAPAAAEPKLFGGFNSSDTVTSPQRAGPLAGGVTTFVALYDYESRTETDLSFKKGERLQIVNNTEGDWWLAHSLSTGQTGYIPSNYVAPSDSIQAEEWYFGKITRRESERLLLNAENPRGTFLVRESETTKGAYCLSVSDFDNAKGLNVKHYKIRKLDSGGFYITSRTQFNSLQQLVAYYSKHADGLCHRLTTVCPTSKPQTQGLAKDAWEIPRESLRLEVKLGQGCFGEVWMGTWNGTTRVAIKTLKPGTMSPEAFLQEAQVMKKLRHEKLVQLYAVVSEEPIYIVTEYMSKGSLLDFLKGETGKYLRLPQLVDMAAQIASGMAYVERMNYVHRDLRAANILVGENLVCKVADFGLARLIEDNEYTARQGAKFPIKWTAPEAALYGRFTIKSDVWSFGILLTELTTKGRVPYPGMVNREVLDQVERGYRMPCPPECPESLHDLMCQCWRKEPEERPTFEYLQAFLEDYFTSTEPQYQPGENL

| SMILES | IC50 (human Src) [nM] | IC50 (human Fyn) [nM] |
| --- | --- | --- |
| CN1CCN(CCCOc2cc3ncnc4c3cc2OCCCN(C(=O)OC(C)(C)C)CCN(C)Cc2ccc3c(c2N4)OCO3)CC1 [Compound A27] | 2240 | 22.4 |
| C[C@H]1C(=O)NCCCOc2cc3c(ncnc3cc2OCCCN2CCC(S(C)(=O)=O)CC2)Nc2c(ccc3c2OCO3)CN1C [Compound B56] | – | 85.1 |
| CN1CCN(C(=O)OC(C)(C)C)CCCOc2cc3c(ncnc3cc2O)Nc2c(ccc3c2OCO3)C1 [Compound A24] | > 10000 | > 1000 |
| C[C@H]1C(=O)NCCCOc2cc3c(ncnc3cc2OCCCN2CCN(C)CC2)Nc2c(ccc3c2OCO3)CN1C [Compound B58] | – | 33.1 |
| COCCNCCCOc1cc2ncnc3c2cc1OCCCNCCN(C)Cc1ccc2c(c1N3)OCO2 [Compound B35] | 631 | 29.5 |
| COc1cc2ncnc3c2cc1OCCCCCN(C)Cc1ccc2c(c1N3)OCO2 [Compound A11] | – | 18.2 |
| C[C@H]1C(=O)NCCCOc2cc3c(ncnc3cc2OCCCN(C)CCO)Nc2c(ccc3c2OCO3)CN1C [Compound B40] | – | 214 |
| CN1CCN(CCCOc2cc3ncnc4c3cc2OCCCCCNCc2cc(Br)c3c(c2N4)OCO3)CC1 [Compound B28] | – | < 1000 |
| COc1cc2ncnc3c2cc1OCCCCCN(C)Cc1cc(Br)c2c(c1N3)OCO2 [Compound B43] | > 10000 | 19.5 |
| CN1CCCCCOc2cc3c(ncnc3cc2OCCC2CCN(C(=O)CCS(C)(=O)=O)CC2)Nc2c(ccc3c2OCO3)C1 [Compound B65] | 1820 | 5.75 |
| CN1CCN(C(=O)OC(C)(C)C)CCCOc2cc3c(ncnc3cc2OCCCN2CCC(S(C)(=O)=O)CC2)Nc2c(ccc3c2OCO3)C1 [Compound A54] | – | 69.2 |
| COc1cc2ncnc3c2cc1OCCCN(C)C(=O)[C@H](C)N(C)Cc1cc(Cl)c2c(c1N3)OCO2 [Compound B76] | – | 316 |
| C[C@H]1C(=O)NCCCOc2cc3c(ncnc3cc2OCCCN2CCC(CCS(C)(=O)=O)CC2)Nc2c(ccc3c2OCO3)CN1C [Compound B55] | – | 115 |
| Oc1cc2ncnc3c2cc1OCCCCCNCc1cc(Br)c2c(c1N3)OCO2 [Compound B44] | – | 209 |
| CN1CCCCCOc2cc3c(ncnc3cc2OCCCN2CCOCC2)Nc2c(ccc3c2OCO3)C1 [Compound B18] | 468 | < 1 |
| Brc1cc2c(c3c1OCO3)Nc1ncnc3cc(OCCCN4CCCC4)c(cc13)OCCCCCNC2 [Compound B27] | – | < 1000 |
| CN1CCCCCOc2cc3c(ncnc3cc2OC[C@@H](O)CN2CCCCC2)Nc2c(ccc3c2OCO3)C1 [Compound B1] | 537 | < 1 |
| CN(CCO)CCCOc1cc2ncnc3c2cc1OCCCN(C(=O)OC(C)(C)C)CCN(C)Cc1ccc2c(c1N3)OCO2 [Compound A29] | 2630 | 43.7 |
| COc1cc2ncnc3c2cc1OCCCCCNCc1cc(Br)c2c(c1N3)OCO2 [Compound B8] | 6460 | 16.6 |
| CN(CCO)CCCOc1cc2ncnc3c2cc1OCCCCCN(C)Cc1ccc2c(c1N3)OCO2 [Compound B15] | 562 | 0.174 |

| SMILES | IC50 (human Src) [nM] | IC50 (human Fyn) [nM] |
| --- | --- | --- |
| C[C@H]1C(=O)NCCCOc2cc3c(ncnc3cc2OCCCN2CCN(C)CC2)Nc2c(ccc3c2OCO3)CN1C [Compound B57] | – | 26.3 |
| COCCOCCOc1cc2ncnc3c2cc1OCCCCCN(C)Cc1ccc2c(c1N3)OCO2 [Compound B31] | 2630 | < 1 |
| COc1cc2ncnc3c2cc1OCCCN(S(=O)(=O)c1ccccc1[N+](=O)[O-])CCN(C)Cc1ccc2c(c1N3)OCO2 [Compound A20] | 186 | 6.92 |
| CN1CCCCCOc2cc3c(ncnc3cc2OC[C@@H](O)CN2CCS(=O)(=O)CC2)Nc2c(ccc3c2OCO3)C1 [Compound B24] | 676 | < 1000 |
| CN1CCN(CCCOc2cc3ncnc4c3cc2OCCCNCCN(C)Cc2ccc3c(c2N4)OCO3)CC1 [Compound B3] | 447 | 11.7 |
| COc1cc2ncnc3c2cc1OCCCCCN(C(=O)OCc1ccccc1)Cc1ccc2c(c1N3)OCO2 [Compound A8] | – | 204 |
| COc1cc2ncnc3c2cc1OCCCNCCN(C)Cc1ccc2c(c1N3)OCO2 [Compound A22] | 3240 | 39.8 |
| COCCOCCOc1cc2ncnc3c2cc1OCCCNCCN(C)Cc1ccc2c(c1N3)OCO2 [Compound B4] | 1480 | 23.4 |
| CN1CCC(COc2cc3ncnc4c3cc2OCCCCCN(C)Cc2ccc3c(c2N4)OCO3)CC1 [Compound B22] | 1290 | > 1000 |
| COCCNCCCOc1cc2ncnc3c2cc1OCCCNC(=O)[C@H](C)N(C)Cc1ccc2c(c1N3)OCO2 [Compound B38] | – | 138 |
| COCCNCCCOc1cc2ncnc3c2cc1OCCCCCN(C)Cc1ccc2c(c1N3)OCO2 [Compound B70] | 776 | 5.01 |
| CN1CCNCCCOc2cc3c(ncnc3cc2O)Nc2c(ccc3c2OCO3)C1 [Compound A23] | > 10000 | > 1000 |
| C[C@H]1C(=O)NCCCOc2cc3c(ncnc3cc2OC[C@@H](O)CN2CCC(O)CC2)Nc2c(ccc3c2OCO3)CN1C [Compound B62] | – | 200 |
| COCCOCCOc1cc2ncnc3c2cc1OCCCNC(=O)[C@H](C)N(C)Cc1ccc2c(c1N3)OCO2 [Compound B7] | – | 91.2 |
| CN1CCCCCOc2cc3c(ncnc3cc2OCCCN)Nc2c(ccc3c2OCO3)C1 [Compound A57] | 933 | 18.2 |
| CN1CCN(CCCOc2cc3ncnc4c3cc2OCCCCCN(C)Cc2ccc3c(c2N4)OCO3)CC1 [Compound B12] | 263 | 0.275 |
| COCCOc1cc2ncnc3c2cc1OCCCCCN(C)Cc1ccc2c(c1N3)OCO2 [Compound B2] | 1100 | 7.76 |
| CN1CCCCCOc2cc3c(ncnc3cc2OCCCN2CCN(CCO)CC2)Nc2c(cc(Br)c3c2OCO3)C1 [Compound B66] | – | < 1000 |
| COc1cc2ncnc3c2cc1OCCCN(C)C(=O)[C@H](C)N(C)Cc1ccc2c(c1N3)OCO2 [Compound B78] | – | > 1000 |
| C[C@H]1C(=O)NCCCOc2cc3c(ncnc3cc2OCCCN2CCOCC2)Nc2c(ccc3c2OCO3)CN1C [Compound A42] | – | 64.6 |

| SMILES | IC50 (human Src) [nM] | IC50 (human Fyn) [nM] |
| --- | --- | --- |
| C[C@H]1C(=O)NCCCOc2cc3c(ncnc3cc2OCCCN2CCS(=O)(=O)CC2)Nc2c(ccc3c2OCO3)CN1C [Compound B36] | – | 38 |
| CN1CCNCCCOc2cc3c(ncnc3cc2OCCCN2CCC(S(C)(=O)=O)CC2)Nc2c(ccc3c2OCO3)C1 [Compound B14] | – | 19.5 |
| COc1cc2ncnc3c2cc1OCCCCN(C(=O)OCc1ccccc1)CCc1ccc2c(c1N3)OCO2 [Compound B50] | – | > 1000 |
| COCCOc1cc2ncnc3c2cc1OCCCCCNCc1ccc2c(c1N3)OCO2 [Compound B33] | – | 13.2 |
| CCOC(CCOc1cc2ncnc3c2cc1OCCCCCN(C)Cc1ccc2c(c1N3)OCO2)OCC [Compound B32] | – | 38 |
| C[C@H]1C(=O)NCCCOc2cc3c(ncnc3cc2OCCCN2CCOCC2)Nc2c(ccc3c2OCO3)CN1C [Compound B6] | – | 38 |
| CN(CCO)CCCOc1cc2ncnc3c2cc1OCCCCCN(C)Cc1cc(Br)c2c(c1N3)OCO2 [Compound B72] | – | < 1000 |
| C[C@H]1C(=O)NCCCOc2cc3c(ncnc3cc2OCCCN2CCN(CCO)CC2)Nc2c(ccc3c2OCO3)CN1C [Compound B54] | – | 51.3 |
| COCCOc1cc2ncnc3c2cc1OCCCNC(=O)[C@H](C)N(C)Cc1ccc2c(c1N3)OCO2 [Compound B41] | – | 81.3 |
| C[C@H]1C(=O)NCCCOc2cc3c(ncnc3cc2OCCCNCCO)Nc2c(ccc3c2OCO3)CN1C [Compound B39] | – | 129 |
| CC(=O)NCCN1CCN(CCCOc2cc3ncnc4c3cc2OCCCNC(=O)[C@H](C)N(C)Cc2ccc3c(c2N4)OCO3)CC1 [Compound B60] | – | 37.2 |
| COc1cc2ncnc3c2cc1OCCCCN(C)CCc1ccc2c(c1N3)OCO2 [Compound B53] | – | 110 |
| COc1cc2ncnc3c2cc1OCCCCCN(C(=O)OCc1ccccc1)Cc1cc(Oc2ccc(C)nc2)c2c(c1N3)OCO2 [Compound A68] | – | > 1000 |
| COc1cc2ncnc3c2cc1OCCCNC(=O)[C@H](C)N(C)Cc1cc(Cl)c2c(c1N3)OCO2 [Compound B74] | – | 69.2 |
| C[C@H]1C(=O)NCCCOc2cc3c(ncnc3cc2OC[C@@H]2CO2)Nc2c(ccc3c2OCO3)CN1C [Compound B42] | – | 282 |
| C[C@H]1C(=O)NCCCOc2cc3c(ncnc3cc2OCCCN2CCN(C(=O)CCS(C)(=O)=O)CC2)Nc2c(ccc3c2OCO3)CN1C [Compound B59] | – | 42.7 |
| CN1CCCCCOc2cc3c(ncnc3cc2O)Nc2c(cc(Br)c3c2OCO3)C1 [Compound B48] | – | 89.1 |
| CN1CCN(C(=O)OC(C)(C)C)CCCOc2cc3c(ncnc3cc2OC(=O)OC(C)(C)C)Nc2c(ccc3c2OCO3)C1 [Compound A25] | – | > 1000 |
